Measured values published in patent US11427586B2, “1,2,4-oxadiazole derivatives as liver X receptor agonists” (NOVARTIS AG, priority 2019, dated 2022).
Read-outs that look alike come from different tables or passages of the source.

What was measured:
SCD1 = assay: Measurement of SCD1 expression in SZ95-SCD1-HiBit cells (HiBiT assay); format: cell-based; details: Homo sapiens, 48 h; for EC50: SCD1 protein production, luminescence, initial dilution 1:3 in DMSO, read-out: HiBit EC50
Description: Measurement of SCD1 Expression in SZ95-SCD1-HiBit Cells
SCD1 expression levels in SZ95 cells were quantitated using the HiBiT system (Promega) in which a small peptide sequence (SmBiT) with a larger protein (LgBiT) reconstitutes luciferase activity and can generate a luminescent signal used for quantitation. SZ95-SCD1-HiBit cells were generated by editing the SCD1 gene of SZ95 cells resulting in the addition of an 8 amino acid linker sequence (gssggssg, SEQ ID NO:1) followed by an 11-amino acid SmBiT sequence (vsgwrlfkkis, SEQ ID NO:2) at the carboxy-terminus of the SCD1 protein. The gRNA targeting sequence used was […] (SEQ ID NO: 3) and the SCD1 insertion oligonucleotide encoding the SmBiT sequence was:
SZ95-SCD1-HiBit cells were seeded in 384-well cell culture white plates at a density of 3000 cells/30 μl. Water was added to edge wells to avoid evaporation. Cells were incubated in a humidified incubator with 5% CO2 at 37° C. overnight. Tested compounds were diluted at a ratio of 1:3 in DMSO using an Agilent BRAVO Automated Liquid Handling Platform and, after further serial dilutions, added to cells at final concentrations starting from 18 μM. 2-(3-(3-((2-chloro-3-(trifluoromethyl)benzyl)(2,2-diphenylethyl)amino)propoxy)phenyl)acetic acid was used as a reference compound in each plate. Cells in the assay plate were incubated in a humidified incubator with 5% CO2 at 37° C. for 48 h.
The assay plates were removed from the incubator and allowed to equilibrate to room temperature. Nano-Glo® HiBiT Detection Reagent (Promega; a mixture of Nano-Glo HiBiT Detection Buffer, Nano-Glo HiBiT Detection Substrate, and LgBiT protein, according to the manufacturer's instructions) was added into assay plates, at a volume equal to cell culture medium in each well. Plates were placed on an orbital shaker at a speed of 300-600 rpm for 10 min at room temperature, and read on an EnVision Plate Reader using luminescence detection with a 1 second read time.
The assay measures the increase in SCD1 protein production in vitro. Amax refers to the percent EC50 of the tested compound compared to a reference compound, 2-(3-(3-((2-chloro-3-(trifluoromethyl)benzyl)(2,2-diphenylethyl)amino)propoxy)phenyl)acetic acid.

SZ95 sebocytes = assay: Sentinel Lipid Assay (SLA), desaturation index in SZ95 sebocytes; format: cell-based; details: Homo sapiens, 72 h; for EC50: desaturation index, lowest dose used 4.6 nM, read-out: SLA EC50
Protocol: Sentinel Lipid Assay (SLA)
The sentinel lipid assay was used quantify the change in the global desaturation index in SZ95 sebocytes upon administration of certain LXR agonist compounds provided herein. The assay measures a smaller subset of lipid analytes in meibum (termed “sentinel lipids”) which would model the global changes the population of both saturated and desaturated lipids in the cells. In order to define this smaller subset of lipids, a complete lipid profile was recorded on dose response curves (eight levels from 4 nM to 10 uM) of Compounds 1-72. An elastic net regression model was applied separately to both the saturated and desaturated lipids to determine the minimum combination of coefficients and analytes, which could be used to adequately model the total population of lipids. The elastic net model was able to reduce the behavior of 425 lipids to 11 lipids and the correlation between the desaturation indices observed using the complete set of lipids with from the 11 sentinel lipids was 0.96.
A medium throughput assay was created using this reduced set of sentinel lipids. A single batch is defined as triplicate examples of three unique plates (i.e., a single batch of cells is used to create nine plates for LC-MSMS analysis). Lipids were extracted from the cells using a 1:1 mixture of methylene chloride/methanol containing 10 nM of deuterated standards of triglycerides, which are used as internal standards for quantitating the lipid abundance. The lipids were separated prior to mass spectrometric analysis using a five minute HPLC gradient. The abundance of the sentinel lipids and the internal standards are measured using multiple reaction monitor mode (MRM) on a triple quadrupole mass spectrometer. The data was transformed from total ion current to nmoles/10^6 cells, which are multiplied by the coefficients from the elastic net model to determine the effective desaturated and saturated content, and therein the desaturation index of the dosed cells. In order to compare compounds from multiple batches with one another, the measure raw desaturation index was normalized by dividing it by the desaturation index of the DMSO dosed cells, and all data was assessed as the fraction by which the compound increases the desaturation index above 1.
SZ95 (immortalized human sebaceous gland cells) cells were seeded in Greiner bio-one 96-well polypropylene plates that were pre-treated with 50 μg/mL Human Plasma Fibronectin (Thermo Fisher Scientific) at a density of 10^4 cells/135 μl. Cells were incubated in a humidified incubator with 5% CO2 at 37° C. overnight. Test compounds were diluted at a ratio of 1:3 and added to cells at final concentrations starting from 10 μM. 2-(3-(3-((2-chloro-3-(trifluoromethyl)benzyl)(2,2-diphenylethyl)amino)propoxy)phenyl)acetic acid was used as a positive control reference compound in each plate. Cells in the assay plate were incubated in a humidified incubator with 5% CO2 at 37° C. for 72 h.
Culture medium was removed from the cells and cells in culture plates were washed with ice cold phosphate buffered saline three times. Plates were heat sealed and stored in a −80° C. freezer prior to Sentinel lipid assay. The Amax value refers to the percent EC50 of the tested compound compared to a reference compound, 2-(3-(3-((2-chloro-3-(trifluoromethyl)benzyl)(2,2-diphenylethyl)amino)propoxy)phenyl)acetic acid.

[1] = normalized Amax based on the reference compound Amax of 100%, read-out: HiBit Normalized Amax
[2] = SZ95-SCD1-HiBit cells, compared to reference compound, read-out: HiBit Amax
[3] = normalized Amax based on the reference compound Amax of 100%, read-out: SLA Normalized Amax
[4] = SZ95 cells, compared to reference compound, read-out: SLA Amax

Row | EC50 (SCD1; SZ95-SCD1-HiBit cells) [nM] | EC50 (SZ95 sebocytes; SZ95 cells) [nM] | SMILES | Emax (SCD1; [1]) [%] | Emax (SCD1; [2]) [%] | Emax (SZ95 sebocytes; [3]) [%] | Emax (SZ95 sebocytes; [4]) [%]
1 | 0.056 | ≤ 4.6 | CC(C)N(C)S(=O)(=O)c1ccccc1Oc1ccc(-c2noc(CN3C(=O)N(CCC4CCOCC4)C(C)(C)C3=O)n2)cc1C(F)(F)F [Compound 5, 2-(4-(5-((4,4-dimethyl-2,5-dioxo-3-(2-(tetrahydro-2H-pyran-4-yl)ethyl)imidazolidin-1-yl)methyl)-1,2,4-oxadiazol-3-yl)-2-(trifluoromethyl)phenoxy)-N-isopropyl-N-methylbenzenesulfonamide] | 87.7 | 83.4 | 152 | 146
2 | 43.6 | 37.5 | CC(C)CS(=O)(=O)c1ccccc1Oc1ccc(-c2noc(CN3C(=O)N(CCC4(O)CCOCC4)C(C)(C)C3=O)n2)cc1C(F)(F)F [Compound 6, 1-(2-(4-hydroxytetrahydro-2H-pyran-4-yl)ethyl)-3-((3-(4-(2-(isobutylsulfonyl)phenoxy)-3-(trifluoromethyl)phenyl)-1,2,4-oxadiazol-5-yl)methyl)-5,5-dimethylimidazolidine-2,4-dione] | 69.8 | 66.4 | 101 | 96.7
3 | 0.128 | ≤ 4.6 | CC(C)(C)c1ccccc1Oc1ccc(-c2noc(CN3C(=O)N(CCC4CCOCC4)C4(CCN(C5CCC5)CC4)C3=O)n2)cc1C(F)(F)F [Compound 7, 3-((3-(4-(2-(tert-butyl)phenoxy)-3-(trifluoromethyl)phenyl)-1,2,4-oxadiazol-5-yl)methyl)-8-cyclobutyl-1-(2-(tetrahydro-2H-pyran-4-yl)ethyl)-1,3,8-triazaspiro[4.5]decane-2,4-dione] | 90 | 85.6 | 110 | 105
4 | 3.3 | ≤ 4.6 | CC(C)CS(=O)(=O)c1ccccc1Oc1ccc(-c2noc(CN3C(=O)N(CCN4CCOCC4)C4(CCNCC4)C3=O)n2)cc1C(F)(F)F [Compound 9, 3-((3-(4-(2-(isobutylsulfonyl)phenoxy)-3-(trifluoromethyl)phenyl)-1,2,4-oxadiazol-5-yl)methyl)-1-(2-morpholinoethyl)-1,3,8-triazaspiro[4.5]decane-2,4-dione] | 98.1 | 93.3 | 147 | 142
5 | 0.079 | ≤ 4.6 | CC(C)CS(=O)(=O)c1ccccc1Oc1ccc(-c2noc(CN3C(=O)N(CCN4CCOCC4)C4(CCN(C)CC4)C3=O)n2)cc1C(F)(F)F [Compound 10, 3-((3-(4-(2-(isobutylsulfonyl)phenoxy)-3-(trifluoromethyl)phenyl)-1,2,4-oxadiazol-5-yl)methyl)-8-methyl-1-(2-morpholinoethyl)-1,3,8-triazaspiro[4.5]decane-2,4-dione] | 111 | 106 | 129 | 124
6 | 0.058 | ≤ 4.6 | CC(C)N(C)S(=O)(=O)c1ccccc1Oc1ccc(-c2noc(CN3C(=O)N(CCN4CCOCC4)C4(CCN(C5CCC5)CC4)C3=O)n2)cc1C(F)(F)F [Compound 11, 2-(4-(5-((8-cyclobutyl-1-(2-morpholinoethyl)-2,4-dioxo-1,3,8-triazaspiro[4.5]decan-3-yl)methyl)-1,2,4-oxadiazol-3-yl)-2-(trifluoromethyl)phenoxy)-N-isopropyl-N-methylbenzenesulfonamide] | 95.9 | 91.2 | 140 | 134
7 | 0.081 | ≤ 4.6 | O=C1N(Cc2nc(-c3ccc(Oc4ccccc4C(F)(F)F)c(C(F)(F)F)c3)no2)C(=O)C2(CCN(C3CCC3)CC2)N1CCC1CCOCC1 [Compound 12, 8-cyclobutyl-1-(2-(tetrahydro-2H-pyran-4-yl)ethyl)-3-((3-(3-(trifluoromethyl)-4-(2-(trifluoromethyl)phenoxy)phenyl)-1,2,4-oxadiazol-5-yl)methyl)-1,3,8-triazaspiro[4.5]decane-2,4-dione] | 81.9 | 77.9 | 130 | 125
8 | 0.102 | ≤ 4.6 | O=C1N(Cc2nc(-c3ccc(Oc4ccccc4C(F)(F)F)c(C(F)(F)F)c3)no2)C(=O)C2(CCN(C3CCC3)CC2)N1CCN1CCOCC1 [Compound 13, 8-cyclobutyl-1-(2-morpholinoethyl)-3-((3-(3-(trifluoromethyl)-4-(2-(trifluoromethyl)phenoxy)phenyl)-1,2,4-oxadiazol-5-yl)methyl)-1,3,8-triazaspiro[4.5]decane-2,4-dione] | 82.2 | 78.2 | 94.5 | 90.7
9 | 0.241 | ≤ 4.6 | CC(COc1ccc(-c2noc(CN3C(=O)N(CCN4CCOCC4)C4(CCN(C5CCC5)CC4)C3=O)n2)cc1C(F)(F)F)(C(F)(F)F)C(F)(F)F [Compound 14, 8-cyclobutyl-1-(2-morpholinoethyl)-3-((3-(4-(3,3,3-trifluoro-2-methyl-2-(trifluoromethyl)propoxy)-3-(trifluoromethyl)phenyl)-1,2,4-oxadiazol-5-yl)methyl)-1,3,8-triazaspiro[4.5]decane-2,4-dione] | 91 | 86.5 | 130 | 125
10 | 0.101 | ≤ 4.6 | CS(=O)(=O)c1ccccc1Oc1ccc(-c2noc(CN3C(=O)N(CCN4CCOCC4)C4(CCN(C5CCC5)CC4)C3=O)n2)cc1C(F)(F)F [Compound 15, 8-cyclobutyl-3-((3-(4-(2-(methylsulfonyl)phenoxy)-3-(trifluoromethyl)phenyl)-1,2,4-oxadiazol-5-yl)methyl)-1-(2-morpholinoethyl)-1,3,8-triazaspiro[4.5]decane-2,4-dione] | 88.3 | 84 | 121 | 116
11 | 0.116 | ≤ 4.6 | CC(C)(C)c1ccccc1Oc1ccc(-c2noc(CN3C(=O)N(CCN4CCOCC4)C4(CCN(C5CCC5)CC4)C3=O)n2)cc1C(F)(F)F [Compound 16, 3-((3-(4-(2-(tert-butyl)phenoxy)-3-(trifluoromethyl)phenyl)-1,2,4-oxadiazol-5-yl)methyl)-8-cyclobutyl-1-(2-morpholinoethyl)-1,3,8-triazaspiro[4.5]decane-2,4-dione] | 94.8 | 90.2 | 146 | 140
